Assay results reported in patent US6706740B2, “Fungicidal heterocyclic aromatic amides and their compositions, methods of use and preparation” (Dow AgroSciences LLC, priority 1999, dated 2004).
Where two headings read alike, the source gives them in different places.

Columns and labels:
[1] = system: Phytophthora infestans—PHYTIN; assay: whole plant or invertebrate; assay type: in vivo; conditions: Phytophthora, in Solanum lycopersicum, 24 h, read-out: PHYTIN in vivo 1 Day Protectant
[2] = system: Puccinia recondita—PUCCRT; assay: Brown Rust of Wheat, in vivo whole plant, 24 Hour Protectant; conditions: Puccinia, control of fungal infection vs untreated plants, read-out: PUCCRT in vivo 1 Day Protectant
Septoria tritici—SEPTTR = assay: Leaf Blotch of Wheat, in vivo whole plant, 24 Hour Protectant; conditions: Zymoseptoria tritici, 24 h, control of fungal infection vs untreated plants, read-out: SEPTTR in vivo 1 Day Protectant
[3] = system: Mycosphaerella graminicola (Septoria tritici—SEPTTR); assay: In vitro fungal growth inhibition, Mycosphaerella graminicola (SEPTTR); assay type: cell-based; conditions: Zymoseptoria tritici, read-out: SEPTTR in vitro Growth Inhibition
Ustilago maydis (USTIMA) = assay: microbe, parasite or virus in culture; assay type: cell-based; conditions: Mycosarcoma maydis, read-out: USTIMA in vitro Growth Inhibition
[4] = system: Leptosphaeria nodorum—LEPTNO; assay: Glume Blotch of Wheat, in vivo whole plant, 24 Hour Protectant; conditions: Leptosphaeria, control of fungal infection vs untreated plants, read-out: LEPTNO in vivo 1 Day Protectant
Erysiphe graminis—ERYSGT = assay: Powdery Mildew of Wheat, in vivo whole plant, 24 Hour Protectant; conditions: Erysiphe, control of fungal infection vs untreated plants, read-out: ERYSGT in vivo 1 Day Protectant
[5] = system: Rhizoctonia solani (RHIZSO); assay: microbe, parasite or virus in culture; assay type: cell-based; conditions: Rhizoctonia solani, read-out: RHIZSO in vitro Growth Inhibition
[6] = system: Phytophthora infestans (PHYTIN); assay: microbe, parasite or virus in culture; assay type: cell-based; conditions: Phytophthora infestans, read-out: PHYTIN in vitro Growth Inhibition
[7] = system: Magnaporthe grisea (Pyricularia oryzae—PYRIOR); assay: microbe, parasite or virus in culture; assay type: cell-based; conditions: Pyricularia oryzae, read-out: PYRIOR in vitro Growth Inhibition
[8] = system: Stagonospora nodorum (Leptosphaeria nodorum—LEPTNO); assay: In vitro fungal growth inhibition, Stagonospora nodorum (LEPTNO); assay type: cell-based; conditions: Leptosphaeria, read-out: LEPTNO in vitro Growth Inhibition
[9] = wheat plants sprayed at 100 ppm, inoculated after 24 hours
[10] = 100 ppm spray, 24 hour protectant, wheat
[11] = 100 ppm spray, wheat, 24 hour protectant

**Q.** What does the source list for `Cc1cc(C)c(C(=O)N[C@H]2COC(=O)[C@H](Cc3ccccc3)[C@@H](OC(=O)C(C)C)[C@H](C)OC2=O)c(O)n1` [Compound 529]?
**A.** pest or weed control at 100 ppm [1]: < 25%; pest or weed control at 100 ppm [2, 9]: 25 to 74%; pest or weed control at 100 ppm (Septoria tritici—SEPTTR; [9]): 25 to 74%; inhibition at 25 ppm ([3]; 25 ppm in the growth medium): < 80%; inhibition at 25 ppm (Ustilago maydis (USTIMA)): < 80%; pest or weed control at 100 ppm [4, 9]: 25 to 74%; pest or weed control at 100 ppm (Erysiphe graminis—ERYSGT; [9]): < 25%; inhibition at 25 ppm [5]: < 80%; inhibition at 25 ppm [6]: < 80%; inhibition at 25 ppm [7]: < 80%; inhibition at 25 ppm ([8]; 25 ppm in the growth medium): < 80%

**Q.** `COc1ccnc(C(=O)N[C@@H]2CC3CC2C2C(=O)N(CC(C)C)C(=O)C32)c1O` (stereo partly shown) [Compound 303] was tested. Which pest or weed control at 100 ppm [1] did it give?
**A.** 25 to 74%

**Q.** What about the pest or weed control at 100 ppm [2, 10] of the same compound?
**A.** < 25%

**Q.** What about the pest or weed control at 100 ppm (Septoria tritici—SEPTTR; [10]) of the same compound?
**A.** 25 to 74%

**Q.** What about the inhibition at 25 ppm ([3]; 25 ppm in growth medium) of the same compound?
**A.** < 80%

**Q.** And the inhibition at 25 ppm (Ustilago maydis (USTIMA))?
**A.** < 80%

**Q.** And the pest or weed control at 100 ppm [4, 10]?
**A.** 25 to 74%

**Q.** And the pest or weed control at 100 ppm (Erysiphe graminis—ERYSGT; [10])?
**A.** < 25%

**Q.** What about the inhibition at 25 ppm [5] of the same compound?
**A.** < 80%

**Q.** What about the inhibition at 25 ppm [6] of the same compound?
**A.** < 80%

**Q.** What about the inhibition at 25 ppm [7] of the same compound?
**A.** < 80%

**Q.** And the inhibition at 25 ppm ([8]; 25 ppm in growth medium)?
**A.** < 80%

**Q.** How did the pest or weed control at 100 ppm [1] turn out when `O=C(NCc1sccc1Cl)c1nc(Br)ccc1O` [Compound 484] was run?
**A.** < 25%

**Q.** What about the pest or weed control at 100 ppm [2, 9] of the same compound?
**A.** < 25%

**Q.** What about the pest or weed control at 100 ppm (Septoria tritici—SEPTTR; [9]) of the same compound?
**A.** < 25%

**Q.** What about the inhibition at 25 ppm ([3]; 25 ppm in the growth medium) of the same compound?
**A.** < 80%

**Q.** And the inhibition at 25 ppm (Ustilago maydis (USTIMA))?
**A.** < 80%

**Q.** And the pest or weed control at 100 ppm [4, 9]?
**A.** < 25%

**Q.** What about the pest or weed control at 100 ppm (Erysiphe graminis—ERYSGT; [9]) of the same compound?
**A.** < 25%

**Q.** And the inhibition at 25 ppm [5]?
**A.** < 80%

**Q.** And the inhibition at 25 ppm [6]?
**A.** < 80%

**Q.** And the inhibition at 25 ppm [7]?
**A.** < 80%

**Q.** And the inhibition at 25 ppm ([8]; 25 ppm in the growth medium)?
**A.** < 80%

**Q.** `O=C(Nc1ccc(Oc2ccc(C(F)(F)F)cc2)cc1)c1nc(Br)ccc1O` [Compound 499] was tested. Which pest or weed control at 100 ppm [1] did it give?
**A.** < 25%

**Q.** And the pest or weed control at 100 ppm [2, 9]?
**A.** 25 to 74%

**Q.** And the pest or weed control at 100 ppm (Septoria tritici—SEPTTR; [9])?
**A.** < 25%

**Q.** And the inhibition at 25 ppm ([3]; 25 ppm in the growth medium)?
**A.** < 80%

**Q.** And the inhibition at 25 ppm (Ustilago maydis (USTIMA))?
**A.** < 80%

**Q.** What about the pest or weed control at 100 ppm [4, 9] of the same compound?
**A.** 25 to 74%

**Q.** And the pest or weed control at 100 ppm (Erysiphe graminis—ERYSGT; [9])?
**A.** < 25%

**Q.** And the inhibition at 25 ppm [5]?
**A.** < 80%

**Q.** What about the inhibition at 25 ppm [6] of the same compound?
**A.** < 80%

**Q.** What about the inhibition at 25 ppm [7] of the same compound?
**A.** < 80%

**Q.** What about the inhibition at 25 ppm ([8]; 25 ppm in the growth medium) of the same compound?
**A.** < 80%

**Q.** How did the pest or weed control at 100 ppm [1] turn out when `CC(NC(=O)c1ccncc1O)c1ccc(C(F)(F)F)cc1` (stereo not shown) [Compound 510] was run?
**A.** 25 to 74%

**Q.** What about the pest or weed control at 100 ppm [2, 9] of the same compound?
**A.** < 25%

**Q.** What about the pest or weed control at 100 ppm (Septoria tritici—SEPTTR; [9]) of the same compound?
**A.** < 25%

**Q.** What about the inhibition at 25 ppm ([3]; 25 ppm in the growth medium) of the same compound?
**A.** < 80%

**Q.** And the inhibition at 25 ppm (Ustilago maydis (USTIMA))?
**A.** < 80%

**Q.** And the pest or weed control at 100 ppm [4, 9]?
**A.** < 25%

**Q.** What about the pest or weed control at 100 ppm (Erysiphe graminis—ERYSGT; [9]) of the same compound?
**A.** < 25%

**Q.** What about the inhibition at 25 ppm [5] of the same compound?
**A.** < 80%

**Q.** And the inhibition at 25 ppm [6]?
**A.** < 80%

**Q.** And the inhibition at 25 ppm [7]?
**A.** < 80%

**Q.** And the inhibition at 25 ppm ([8]; 25 ppm in the growth medium)?
**A.** < 80%

**Q.** What does the source list for `COc1ccnc(C(=O)Nc2ccc(Oc3cccc(C(F)(F)F)c3)cc2)c1O` [Compound 424]?
**A.** pest or weed control at 100 ppm [1]: 25 to 74%; pest or weed control at 100 ppm [2, 11]: 25 to 74%; pest or weed control at 100 ppm (Septoria tritici—SEPTTR; [11]): 25 to 74%; inhibition at 25 ppm ([3]; 25 ppm in growth medium): < 80%; inhibition at 25 ppm (Ustilago maydis (USTIMA)): < 80%; pest or weed control at 100 ppm [4, 11]: 25 to 74%; pest or weed control at 100 ppm (Erysiphe graminis—ERYSGT; [11]): 25 to 74%; inhibition at 25 ppm [5]: < 80%; inhibition at 25 ppm [6]: < 80%; inhibition at 25 ppm [7]: < 80%; inhibition at 25 ppm ([8]; 25 ppm in growth medium): > 80%

**Q.** Which pest or weed control at 100 ppm [1] does the source give for `COc1ccc(CNC(=O)c2nc(Br)ccc2O)cc1` [Compound 482] here?
**A.** < 25%

**Q.** And the pest or weed control at 100 ppm [2, 9]?
**A.** < 25%

**Q.** And the pest or weed control at 100 ppm (Septoria tritici—SEPTTR; [9])?
**A.** 25 to 74%

**Q.** What about the inhibition at 25 ppm ([3]; 25 ppm in the growth medium) of the same compound?
**A.** < 80%

**Q.** What about the inhibition at 25 ppm (Ustilago maydis (USTIMA)) of the same compound?
**A.** < 80%

**Q.** And the pest or weed control at 100 ppm [4, 9]?
**A.** 25 to 74%

**Q.** And the pest or weed control at 100 ppm (Erysiphe graminis—ERYSGT; [9])?
**A.** < 25%

**Q.** What about the inhibition at 25 ppm [5] of the same compound?
**A.** < 80%

**Q.** What about the inhibition at 25 ppm [6] of the same compound?
**A.** < 80%

**Q.** What about the inhibition at 25 ppm [7] of the same compound?
**A.** < 80%

**Q.** What about the inhibition at 25 ppm ([8]; 25 ppm in the growth medium) of the same compound?
**A.** < 80%

**Q.** What does the source list for `COc1ccnc(C(=O)Nc2ccc(Oc3cc(Oc4ccccc4)ncn3)cc2)c1O` [Compound 468]?
**A.** pest or weed control at 100 ppm [1]: < 25%; pest or weed control at 100 ppm [2, 9]: < 25%; pest or weed control at 100 ppm (Septoria tritici—SEPTTR; [9]): 25 to 74%; inhibition at 25 ppm ([3]; 25 ppm in the growth medium): < 80%; inhibition at 25 ppm (Ustilago maydis (USTIMA)): < 80%; pest or weed control at 100 ppm [4, 9]: < 25%; pest or weed control at 100 ppm (Erysiphe graminis—ERYSGT; [9]): < 25%; inhibition at 25 ppm [5]: < 80%; inhibition at 25 ppm [6]: < 80%; inhibition at 25 ppm [7]: < 80%; inhibition at 25 ppm ([8]; 25 ppm in the growth medium): < 80%
